Columns and labels:
ERβ = molecular target: T1, ERβ (Homo sapiens, UniProt Q92731); assay: Competition with [3H]-17β-estradiol for ERβ ligand binding domain; conditions: for IC50: crude E. coli lysate expressing human ERβ LBD (D, E, & F), 2 nM [3H]-17β-estradiol, 5-15 hours at room temperature; for α/β: receptor selectivity, ratio ERα IC50 / ERβ IC50
T1 construct: made in house; host or cells: E. coli
Method: (§1) Representative examples of the invention were evaluated for their ability to compete with 17β-estradiol for both ERα and ERβ. This test procedure provides the methodology for one to determine whether a particular compound binds to the estrogen receptor (and is therefore “estrogenic”) and whether there is selectivity for ERα or ERβ. […] 17β-estradiol is included as a standard reference for compalison. The procedure used is briefly described below. A crude lysate of E. coli expressing the estrogen receptor ligand binding domains (D, E, & F) of human ERα or ERβ was prepared. Both receptors and compounds were diluted in 1× Dulbecco's PBS (DPBS) supplemented with 1 mM EDTA. Using a high binding masked microtiter plate, 100 uL of receptor (1 uG/well) was combined with 2 nM [^3H]-17β-estradiol and various concentrations of compound. After between 5 and 15 hours at room temperature, the plates were washed with DPBS/1 mM EDTA and bound radioactivity determined by liquid scintillation counting.

ERα = molecular target: T2, ERα (Homo sapiens, UniProt P03372); assay: Competition with [3H]-17β-estradiol for ERα ligand binding domain; conditions: crude E. coli lysate expressing human ERα LBD (D, E, & F); 2 nM [3H]-17β-estradiol; 5-15 hours at room temperature
T2 construct: made in house; host or cells: E. coli
T2 sequence (P03372 311-547 limits assumed): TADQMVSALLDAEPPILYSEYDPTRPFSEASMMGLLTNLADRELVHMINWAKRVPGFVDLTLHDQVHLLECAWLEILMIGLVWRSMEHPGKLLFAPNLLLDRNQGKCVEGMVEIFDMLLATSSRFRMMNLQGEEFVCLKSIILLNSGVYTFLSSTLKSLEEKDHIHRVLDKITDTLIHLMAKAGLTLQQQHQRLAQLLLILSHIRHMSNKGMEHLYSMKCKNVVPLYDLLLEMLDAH
Method: as §1

T1 sequence (Q92731 264-498 limits assumed): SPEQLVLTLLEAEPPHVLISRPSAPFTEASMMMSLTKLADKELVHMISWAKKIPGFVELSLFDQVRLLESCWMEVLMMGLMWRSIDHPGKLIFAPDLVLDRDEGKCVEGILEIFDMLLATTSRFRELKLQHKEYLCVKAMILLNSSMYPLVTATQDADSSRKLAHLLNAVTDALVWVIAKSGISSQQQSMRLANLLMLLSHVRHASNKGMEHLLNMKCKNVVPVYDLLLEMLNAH

| SMILES | IC50 (ERβ) | α/β (ERβ) | IC50 (ERα) |
| --- | --- | --- | --- |
| C#Cc1cc(-c2ccc(O)c(F)c2)nc2ccc(O)cc12 [Cpd 14b, 4-Ethynyl-2-(3-fluoro-4-hydroxyphenyl)quinolin-6-ol] | 32 nM | 106 | 3410 nM |
| Oc1ccc2nc(-c3ccc(O)c(F)c3)cc(I)c2c1 [Cpd 8b, 2-(3-Fluoro-4-hydroxyphenyl)-4-iodoquinolin-6-ol] | 5 nM | 73 | 365 nM |
| CC(=O)Oc1ccc2nc(-c3ccc(OC(C)=O)c(F)c3)cc(Br)c2c1 [Cpd 7, 6-Acetoxy-4-bromo-2-(3-fluoro-4-acetoxyphenyl)quinoline] | 198 nM | >25 | > 5000 nM |
| Oc1ccc(-c2cc(I)c3cc(O)ccc3n2)cc1 [Cpd 8a, 2-(4-Hydroxyphenyl)-4-iodoquinolin-6-ol] | 2.4 nM | 43 | 103 nM |
| C[Si](C)(C)C#Cc1cc(-c2ccc(O)cc2)nc2ccc(O)cc12 [Cpd 13a, 2-(4-Hydroxyphenyl)-4-[(trimethylsilyl)ethynyl]quinolin-6-ol] | 161 nM | 9 | 1510 nM |

More lines, now with the values ahead:

| IC50 (ERβ) | α/β (ERβ) | IC50 (ERα) | SMILES |
| --- | --- | --- | --- |
| 1.7 nM | 7 | 11.6 nM | Oc1cc(Br)c2nc(-c3ccc(O)c(F)c3)cc(Br)c2c1 [Cpd 45b, 4,8-Dibromo-2-(3-fluoro-4-hydroxyphenyl)quinolin-6-ol] |
| 0.95 nM | 79 | 75 nM | C=Cc1cc(-c2ccc(O)c(F)c2)nc2c(Cl)cc(O)cc12 [Cpd 50, 8-Chloro-2-(3-fluoro-4-hydroxyphenyl)-4-vinylquinolin-6-ol] |
| 13 nM | 15 | 195 nM | COc1ccc(-c2cc(-c3ccc(O)c(F)c3)nc3c(Cl)cc(O)cc23)cc1 [Cpd 52, 8-Chloro-2-(3-fluoro-4-hydroxyphenyl)-4-(4-methoxyphenyl)quinolin-6-ol] |
| 37 nM | 56 | 2070 nM | N#Cc1ccc(-c2cc(-c3ccc(O)c(F)c3)nc3c(Cl)cc(O)cc23)cc1 [Cpd 51, 8-Chloro-4-(4-cyanophenyl)-2-(3-fluoro-4-hydroxyphenyl)quinolin-6-ol] |
